ChEMBL document CHEMBL3045418, “Design, synthesis and antidepressant activity evaluation 2-hydroxy-4,6-diisoprenyloxychalcone derivatives” (2013)

How the values were obtained:
Assay type in all cases: functional
Details in all cases: route intraperitoneal
Mus musculus [1] = assay: Increase in yohombine-induced mortality in Kunming Mus musculus (mouse) at 30 mg/kg, ip administered for 1 hr prior to yohombine challenge measured after 24 hr (reference value: 20%)
Mus musculus [2] = assay: Antidepressant activity in Kunming Mus musculus (mouse) assessed as immobility time at 10 mg/kg, ip administered 30 min prior to testing measured after 2 to 6 min by forced swimming test (reference value: 116.7 +/- 12.3 secs)
Mus musculus [3] = assay: Antidepressant activity in Kunming Mus musculus (mouse) assessed as immobility time at 10 mg/kg, ip administered 30 min prior to testing measured after 2 to 6 min by tail suspension test (reference value: 130.5 +/- 9.6 secs)

| SMILES | mortality at 30 mg/kg (Mus musculus [1]) [%] | Time (Mus musculus [2]) [s] | Time (Mus musculus [3]) [s] |
| --- | --- | --- | --- |
| CN(C)CCCN1c2ccccc2CCc2ccc(Cl)cc21 [CLOMIPRAMINE] | 80 |  |  |
| CNCCC(Oc1ccc(C(F)(F)F)cc1)c1ccccc1 (stereo not drawn) [FLUOXETINE] |  | 68.6 | 75.6 |
